Among the test systems are HL-60(TB) leukemia; SF-295 CNS; PC-3 prostate; MDA-N; UACC-257 melanoma; RPMI-8226 leukemia; MCF7 breast; DU-145 prostate; M14 melanoma; SNB-78 CNS; KM20L2 colon; DMS 273 small cell lung.
Common to all, as to experiment: growth of human tumour cells (NCI), 48 h

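Each compound was tested at five concentrations against cells in 96-well plates for 48 hours. TGI: total growth inhibition.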

`CC(=O)NNc1nc(C)c(C(/C=C/c2ccc3c(c2)OCO3)=N/Nc2ccccc2)s1`: the TGI in the experiment on HL-60(TB) leukemia, with SF-295 CNS, in the experiment on PC-3 prostate, in the experiment on MDA-N, in the experiment with UACC-257 melanoma and with RPMI-8226 leukemia was greater than 100 µM throughout. The TGI in the experiment on MCF7 breast, with DU-145 prostate and in the experiment with M14 melanoma was greater than 100 µM throughout.

Consider `O=C(Nc1sccc1S(=O)(=O)c1ccccc1)c1cccnc1`, for which the TGI in the experiment with HL-60(TB) leukemia was 4.28 µM; in the experiment on SF-295 CNS, greater than 100 µM; with PC-3 prostate, greater than 100 µM; in the experiment on MDA-N, 3.63 µM; in the experiment with UACC-257 melanoma, greater than 100 µM; in the experiment with RPMI-8226 leukemia it was greater than 100 µM. The TGI with MCF7 breast, in the experiment with DU-145 prostate and in the experiment with M14 melanoma was greater than 100 µM throughout.

`Cn1c(=O)c2c(nc(NCCCCl)n2CC(=O)O)n(C)c1=O`: the TGI in the experiment on HL-60(TB) leukemia, with SF-295 CNS, in the experiment with PC-3 prostate, in the experiment on MDA-N, in the experiment with UACC-257 melanoma and in the experiment on RPMI-8226 leukemia was greater than 100 µM throughout. The TGI with MCF7 breast, in the experiment with DU-145 prostate and in the experiment with M14 melanoma was greater than 100 µM throughout.

Regarding `NCCC(N)C(=O)O` (stereo not given), the TGI in the experiment with HL-60(TB) leukemia, with SF-295 CNS, in the experiment with PC-3 prostate, in the experiment with MDA-N, with UACC-257 melanoma and in the experiment on RPMI-8226 leukemia was greater than 100 µM each time. Besides, the TGI with MCF7 breast, in the experiment on DU-145 prostate and in the experiment with M14 melanoma was greater than 100 µM each time.

`CC(C)(CN)CN`: the TGI in the experiment on HL-60(TB) leukemia, with SF-295 CNS, with PC-3 prostate, with MDA-N, with UACC-257 melanoma and in the experiment with RPMI-8226 leukemia was greater than 100 µM in each case. The TGI in the experiment with MCF7 breast, in the experiment on DU-145 prostate and with M14 melanoma was greater than 100 µM each time.

As to `Cc1ccc(C)n2c1nc1ccc3ccccc3c12`, the TGI with HL-60(TB) leukemia, in the experiment with SF-295 CNS, in the experiment on PC-3 prostate, with MDA-N, in the experiment with UACC-257 melanoma and in the experiment with RPMI-8226 leukemia was greater than 100 µM throughout. The TGI in the experiment with MCF7 breast, in the experiment on DU-145 prostate and in the experiment on M14 melanoma was greater than 100 µM in each case.

In the case of `Cc1ccc(C(=O)OC[C@H]2CC[C@@H](n3cc(N(C)C4CCCCC4)c(=O)[nH]c3=O)O2)cc1`, the TGI with HL-60(TB) leukemia was greater than 100 µM; in the experiment with SF-295 CNS it was 43.1 µM; in the experiment with PC-3 prostate, greater than 100 µM; with MDA-N, 90.7 µM; in the experiment with UACC-257 melanoma, 98.5 µM; in the experiment on RPMI-8226 leukemia, 77.9 µM. Further, the TGI in the experiment with MCF7 breast is 47.2 µM; in the experiment with DU-145 prostate, greater than 100 µM; with M14 melanoma, 32.6 µM.

As for `Cc1cc2c(cc1Cl)Sc1nnc(Nc3ccccc3)n1S2(=O)=O`, the TGI in the experiment with HL-60(TB) leukemia was determined as 16.4 µM; with SF-295 CNS, 49.6 µM; with PC-3 prostate it was 22.1 µM; with MDA-N it was 31.2 µM; in the experiment with UACC-257 melanoma, 61.2 µM; in the experiment with RPMI-8226 leukemia, 6.91 µM. Further, the results for the TGI with MCF7 breast, in the experiment with DU-145 prostate and in the experiment on M14 melanoma were 32.4 µM, greater than 100 µM and 60.1 µM, respectively.

For the molecule `CCCC/C=C1\CCC(CN2CCCCC2)C1=O` (stereo not given), the TGI was 14.4 µM in the experiment on HL-60(TB) leukemia; 45.5 µM with SF-295 CNS; greater than 100 µM in the experiment on PC-3 prostate; greater than 100 µM in the experiment on MDA-N; 27.4 µM with SNB-78 CNS; 42 µM with UACC-257 melanoma. The TGI is greater than 100 µM in the experiment with MCF7 breast, greater than 100 µM in the experiment with DU-145 prostate, 24.4 µM in the experiment on M14 melanoma and 32.9 µM with KM20L2 colon.

As to `COc1cccc2cc(C)c(C(=O)c3ccccc3)nc12`, the TGI in the experiment with SF-295 CNS, in the experiment with SNB-78 CNS, with DMS 273 small cell lung, in the experiment on UACC-257 melanoma, in the experiment on RPMI-8226 leukemia and in the experiment on M14 melanoma was greater than 100 µM throughout. For the same molecule, the TGI in the experiment with KM20L2 colon is greater than 100 µM.

As for `COc1ccc2c(c1)O[C@@H]1C(O)Oc3cc(OC)c(OC)cc3[C@]1(O)C2=O` (stereo not given in full), the TGI in the experiment with HL-60(TB) leukemia, with SF-295 CNS, in the experiment with PC-3 prostate, in the experiment on MDA-N, in the experiment with UACC-257 melanoma and in the experiment with RPMI-8226 leukemia was greater than 100 µM in each case. The TGI in the experiment with MCF7 breast, with DU-145 prostate and with M14 melanoma was greater than 100 µM throughout.

With `CCCCOC(=O)CNC(=O)OCCCCC#CC#CCCCCOC(=O)NCC(=O)OCCCC`, the TGI in the experiment with HL-60(TB) leukemia, with SF-295 CNS, in the experiment with SNB-78 CNS, with DMS 273 small cell lung, in the experiment with UACC-257 melanoma and with RPMI-8226 leukemia was greater than 100 µM throughout. In addition, the TGI in the experiment on M14 melanoma and in the experiment on KM20L2 colon was greater than 100 µM each time.

Consider `c1ccc(CNc2c3c(nc4ccccc24)CCC3)cc1`, for which the TGI in the experiment on HL-60(TB) leukemia was determined as 0.146 µM; in the experiment on SF-295 CNS it was 22 µM; in the experiment on PC-3 prostate it was 33.3 µM; in the experiment with MDA-N it was 30.4 µM; in the experiment on UACC-257 melanoma, 29.3 µM; in the experiment on RPMI-8226 leukemia, 29.9 µM. Further, the TGI in the experiment with MCF7 breast worked out at 30.9 µM; in the experiment with DU-145 prostate it was 62.5 µM; in the experiment with M14 melanoma, 27.2 µM.

Source of the values: PubChem BioAssay (NCI).
